Test results taken from patent publication US20250197387A1, “BCL-XL DEGRADERS AND USES THEREOF” (Kymera Therapeutics, Inc., priority 2021, published 2025).
Read-outs that look alike come from different tables or passages of the source.

How the values were obtained:
Format in all cases: cell-based
Caki-2 cells = assay: CTG (CellTiter-Glo) cell viability assay, Caki-2; settings: Homo sapiens, 72 h, 3 day incubation, read-out: CTG Chempartner - Caki-2 3 day: Average external-IC50
Method in brief: (§1)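 Luminescence from CellTiter-Glo, read after 3 days of compound exposure at 37 °C, gave viability; IC50 values came from three-parameter logistic curves. Cells were plated at 10,000 per well and dosed over nine 1:3 steps topping at 10 μM.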

MOLT-4 cells = assay: CTG (CellTiter-Glo) cell viability assay, MOLT-4; settings: Homo sapiens, 3 day incubation, read-out: CTG Cell Viability Assay - MOLT-4 3 day: Average external-IC50
Method in brief: as §1

BCL-XL = molecular target: T1, BCL-XL (Homo sapiens, UniProt Q07817); assay: Bcl-xL ELISA degradation in MOLT-4 cells, 6 h; settings: for DC50: read-out: Bcl-xL ELISA in MOLT-4 degradation 6 h: Mean external-Abs DC50
T1 construct: endogenous in cells; host or cells: MOLT-4
T1 sequence (Q07817 whole entry): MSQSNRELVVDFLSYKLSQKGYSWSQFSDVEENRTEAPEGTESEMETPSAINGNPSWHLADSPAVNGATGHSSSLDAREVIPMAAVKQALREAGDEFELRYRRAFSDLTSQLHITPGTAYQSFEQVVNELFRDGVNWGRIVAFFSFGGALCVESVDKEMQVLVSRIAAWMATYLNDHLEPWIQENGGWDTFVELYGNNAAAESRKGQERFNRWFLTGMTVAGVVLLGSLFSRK
Experimental: The letter codes for BCL-XL DC50 include: A (<0.01 μM); B (0.01-0.1 μM); C (>[…]); D (>0.5-1.0 μM); and E (>1.0 μM). The letter codes for Dmax % include A (>75%); B (50 to 75%); C (<50%).

Row | Compound | IC50 (Caki-2 cells) [µM] | IC50 (MOLT-4 cells; MOLT-4, 72 h) [nM] | Dmax (BCL-XL) [%] | DC50 (BCL-XL) [nM] | IC50 (MOLT-4 cells; 72 h) [nM]
1 | Cc1ncsc1-c1ccc([C@H](C)NC(=O)[C@@H]2C[C@@H](O)CN2C(=O)[C@@H](NC(=O)C2CCN(c3ccc(S(=O)(=O)NC(=O)c4nc(N5CCc6cccc(C(=O)Nc7nc8ccccc8s7)c6C5)ccc4-c4cnn(CC5(OCCO)CCCCC5)c4C)cc3)CC2)C(C)(C)C)cc1 [I-409] | > 10 | < 100 | > 75 | 10 to 100 | 
2 | Cc1ncsc1-c1ccc([C@H](C)NC(=O)[C@@H]2C[C@@H](O)CN2C(=O)[C@@H](NC(=O)C2CCN(c3ccc(S(=O)(=O)NC(=O)c4nc(N5CCc6cccc(C(=O)Nc7nc8ccccc8s7)c6C5)ccc4-c4cnn(CC5CCCC5)c4C)cc3)CC2)C(C)(C)C)cc1 [I-348] | > 10 | < 100 | > 75 | < 10 | 
3 | Cc1cnc(NC(=O)c2cccc3c2CN(c2ccc(-c4cnn(CC5CCCCC5)c4C)c(C(=O)NS(=O)(=O)CCCCCC(=O)N[C@H](C(=O)N4C[C@H](O)C[C@H]4C(=O)N[C@@H](C)c4ccc(-c5scnc5C)cc4)C(C)(C)C)n2)CC3)s1 [I-460] | > 10 | < 100 | > 75 | 10 to 100 | 
4 | C#Cc1ccc([C@H](CO)NC(=O)[C@@H]2C[C@@H](O)CN2C(=O)[C@@H](NC(=O)CCNCCS(=O)(=O)NC(=O)c2nc(N3CCc4cccc(C(=O)Nc5nc6cccnc6s5)c4C3)ccc2-c2cnn(CC3CCCCC3)c2C)C(C)(C)C)cc1 [I-378] | > 10 | 100 to 1000 | > 75 | 10 to 100 | 
5 | Cc1ncsc1-c1ccc([C@H](C)NC(=O)[C@@H]2C[C@@H](OC(=O)CCP(=O)(O)O)CN2C(=O)[C@@H](NC(=O)C2CCN(c3ccc(S(=O)(=O)NC(=O)c4nc(N5CCc6cccc(C(=O)Nc7nc8ccccc8s7)c6C5)ccc4-c4cnn(CC5CCCCC5)c4C)cc3)CC2)C(C)(C)C)cc1 [I-350] | 1 to 10 |  | > 75 | 10 to 100 | 100 to 1000
6 | C#Cc1ccc(CNC(=O)[C@@H]2C[C@@H](O)CN2C(=O)[C@H](NC(=O)CCCCCS(=O)(=O)NC(=O)c2nc(N3CCc4cccc(C(=O)Nc5nc6ccccc6s5)c4C3)ccc2-c2cnn(CC3CCCCC3)c2C)C(C)(C)CCOP(=O)(O)O)cc1 [I-418] | > 10 | 100 to 1000 | > 75 | 100 to 500 | 
7 | Cc1ncsc1-c1ccc(CNC(=O)[C@@H]2C[C@@H](O)CN2C(=O)[C@@H](NC(=O)CCCc2cc(F)cc(S(=O)(=O)NC(=O)c3nc(N4CCc5cccc(C(=O)Nc6nc7ccccc7s6)c5C4)ccc3-c3cnn(CC4CCCCC4)c3C)c2)C(C)(C)C)cc1 [I-374] | 1 to 10 | < 100 | > 75 | < 10 | 
8 | Cc1ncsc1-c1ccc([C@H](C)NC(=O)[C@@H]2C[C@@H](O)CN2C(=O)[C@@H](NC(=O)[C@H]2CC[C@H](N3CCC(S(=O)(=O)NC(=O)c4nc(N5CCc6cccc(C(=O)Nc7nc8ccccc8s7)c6C5)ccc4-c4cnn(CC5CCCCC5)c4C)CC3)CC2)C(C)(C)C)cc1 [I-357] | 1 to 10 | 1000 to 3000 | > 75 | 100 to 500 | 
9 | Cc1cc(N(C)c2ccc(-c3cnn(CC45CC6CC(CC(C6)C4)C5)c3C)c(C(=O)NS(=O)(=O)CCCCCC(=O)N[C@H](C(=O)N3C[C@H](O)C[C@H]3C(=O)NCc3ccc4c(c3)c(C)nn4C)C(C)(C)C)n2)nnc1Nc1nc2ccccc2s1 [I-484] | > 10 | < 100 | > 75 | < 10 | 
10 | Cc1cc(N(C)c2ccc(-c3cnn(CC45CC6CC(CC(C6)C4)C5)c3C)c(C(=O)NS(=O)(=O)CC3CCN(CC(=O)N[C@H](C(=O)N4C[C@H](O)C[C@H]4C(=O)N[C@@H](C)c4ccc(-c5scnc5C)cc4)C(C)(C)C)CC3)n2)nnc1Nc1nc2cccnc2s1 [I-449] | > 10 |  | > 75 | 100 to 500 | > 3000
11 | Cc1ncsc1-c1ccc([C@H](C)NC(=O)[C@@H]2C[C@@H](O)CN2C(=O)[C@@H](NC(=O)[C@H]2CC[C@H](c3nc(C4CCCN(C(=O)c5nc(N6CCc7cccc(C(=O)Nc8nc9ccccc9s8)c7C6)ccc5-c5cnn(CC6CCCCC6)c5C)C4)no3)CC2)C(C)(C)C)cc1 (stereo partly shown) [I-301] | 1 to 10 | 100 to 1000 | 50 to 75 | > 1000 | 
12 | Cc1ncsc1-c1ccc([C@H](C)NC(=O)[C@@H]2C[C@@H](O)CN2C(=O)[C@H](NC(=O)CCCCCS(=O)(=O)NC(=O)c2nc(N3CCc4cccc(C(=O)Nc5nc6ccccc6s5)c4C3)ccc2-c2cnn(CC3CCCCC3)c2C)C(C)(C)CCO)cc1 [I-366] | > 10 | 1000 to 3000 | > 75 | 100 to 500 | 
13 | C#Cc1ccc(CNC(=O)[C@@H]2C[C@@H](O)CN2C(=O)[C@@H](NC(=O)C2CN(c3ccc(S(=O)(=O)NC(=O)c4nc(N(C)c5cc(C)c(Nc6nc7ccccc7s6)nn5)ccc4-c4cnn(CC56CC7CC(CC(C7)C5)C6)c4C)cc3)C2)C(C)(C)C)cc1 [I-440] | > 10 | < 100 | > 75 | < 10 | 
14 | C#Cc1ccc(CNC(=O)[C@@H]2C[C@@H](O)CN2C(=O)[C@@H](NC(=O)CCCCCS(=O)(=O)NC(=O)c2nc(N(C)c3cc(C)c(Nc4nc5cccnc5s4)nn3)ccc2-c2cnn(CC34CC5CC(CC(C5)C3)C4)c2C)C(C)(C)C)cc1 [I-446] | > 10 | 100 to 1000 | > 75 | 10 to 100 | 
15 | C#Cc1ccc(CNC(=O)[C@@H]2C[C@@H](O)CN2C(=O)[C@H](NC(=O)CCCCCS(=O)(=O)NC(=O)c2nc(N3CCc4cccc(C(=O)Nc5nc6ccccc6s5)c4C3)ccc2-c2cnn(CC3CCCCC3)c2C)C(C)(C)CCO)cc1 [I-355] | > 10 | 1000 to 3000 | > 75 | 100 to 500 | 
16 | C#Cc1ccc(CNC(=O)[C@@H]2C[C@@H](O)CN2C(=O)[C@H](c2cc(N3CCN(c4ccc(S(=O)(=O)NC(=O)c5nc(N6CCc7cccc(C(=O)Nc8nc9ccccc9s8)c7C6)ccc5-c5cnn(CC6CCCCC6)c5C)cc4)CC3)no2)C(C)C)c(OC)c1 [I-408] | > 10 | < 100 | 50 to 75 | < 10 | 
17 | Cc1ncsc1-c1ccc([C@H](C)NC(=O)[C@@H]2C[C@@H](O)CN2C(=O)[C@@H](NC(=O)C2CCN(c3ccc(S(=O)(=O)NC(=O)c4nc(N5CCc6cccc(C(=O)Nc7nc8ccccc8s7)c6C5)ccc4-c4cnn(CC5CCCCC5)c4C)cc3F)CC2)C(C)(C)C)cc1 [I-328] | 1 to 10 | < 100 | > 75 | 10 to 100 | 
18 | Cc1ncsc1-c1ccc([C@H](C)NC(=O)[C@@H]2C[C@@H](O)CN2C(=O)[C@@H](NC(=O)c2ccc(NC3CCCN(S(=O)(=O)NC(=O)c4nc(N5CCc6cccc(C(=O)Nc7nc8ccccc8s7)c6C5)ccc4-c4cnn(CC5CCCCC5)c4C)C3)cc2)C(C)(C)C)cc1 (stereo partly shown) [I-325] | 1 to 10 | < 100 | 50 to 75 | 100 to 500 | 
19 | Cc1ncsc1-c1ccc([C@H](C)NC(=O)[C@@H]2C[C@@H](O)CN2C(=O)[C@@H](NC(=O)C2CN(c3ccc(S(=O)(=O)NC(=O)c4nc(N5CCc6cccc(C(=O)Nc7nc8ccccc8s7)c6C5)ccc4-c4cnn(CC5CCCCC5)c4C)cc3)C2)C(C)(C)C)cc1 [I-343] | 1 to 10 | < 100 | > 75 | 10 to 100 | 
20 | Cc1ncsc1-c1ccc([C@H](C)NC(=O)[C@@H]2C[C@@H](O)CN2C(=O)[C@@H](NC(=O)CCCCS(=O)(=O)NC(=O)c2nc(N3CCc4cccc(C(=O)Nc5nc6ccccc6s5)c4C3)ccc2-c2cnn(CC3CCCCC3)c2C)C(C)(C)C)cc1 [I-317] | 1 to 10 | 100 to 1000 | > 75 | 10 to 100 | 
21 | C#Cc1ccc([C@H](CO)NC(=O)[C@@H]2C[C@@H](O)CN2C(=O)[C@@H](NC(=O)CCCCCS(=O)(=O)NC(=O)c2nc(N(C)c3cc(C)c(Nc4nc5ccccc5s4)nn3)ccc2-c2cnn(CC34CC5CC(CC(C5)C3)C4)c2C)C(C)(C)C)cc1 [I-474] | > 10 | < 100 | > 75 | < 10 | 
22 | Cc1ncsc1-c1ccc(CNC(=O)[C@@H]2C[C@@H](O)CN2C(=O)[C@@H](NC(=O)CCc2cccc(S(=O)(=O)NC(=O)c3nc(N4CCc5cccc(C(=O)Nc6nc7ccccc7s6)c5C4)ccc3-c3cnn(CC4CCCCC4)c3C)c2)C(C)(C)C)cc1 [I-283] | 1 to 10 | < 100 | > 75 | < 10 | 
23 | Cc1cc(N(C)c2ccc(-c3cnn(CC4CCCC4)c3C)c(C(=O)NS(=O)(=O)CCCCCC(=O)N[C@H](C(=O)N3C[C@H](O)C[C@H]3C(=O)N[C@@H](C)c3ccc(-c4scnc4C)cc3)C(C)(C)C)n2)nnc1Nc1nc2ccccc2s1 [I-443] | > 10 | > 3000 | > 75 | 100 to 500 | 
24 | Cc1cc(N(C)c2ccc(-c3cnn(CC45CC6CC(CC(C6)C4)C5)c3C)c(C(=O)NS(=O)(=O)CCCCCc3cccc4c3n(C)c(=O)n4C3CCC(=O)NC3=O)n2)nnc1Nc1nc2ccccc2s1 (stereo not shown) [I-423] | 1 to 10 | < 100 | > 75 | < 10 | 
25 | C#Cc1ccc(CNC(=O)[C@@H]2C[C@@H](O)CN2C(=O)[C@@H](NC(=O)CCN(C)CCS(=O)(=O)NC(=O)c2nc(N3CCc4cccc(C(=O)Nc5nc6cccnc6s5)c4C3)ccc2-c2cnn(CC3CCCCC3)c2C)C(C)(C)C)cc1 [I-413] | > 10 | 100 to 1000 | > 75 | 10 to 100 | 
